# Active and inactive are the calls of the source. Cut-off read from the data, not from the text of the source: actives have a measured EC50 and inactives only a lower limit.
# Molecular target: T1, Streptokinase A (Streptococcus pyogenes serotype M1, UniProt P10520)
# T1 sequence (P10520 whole entry): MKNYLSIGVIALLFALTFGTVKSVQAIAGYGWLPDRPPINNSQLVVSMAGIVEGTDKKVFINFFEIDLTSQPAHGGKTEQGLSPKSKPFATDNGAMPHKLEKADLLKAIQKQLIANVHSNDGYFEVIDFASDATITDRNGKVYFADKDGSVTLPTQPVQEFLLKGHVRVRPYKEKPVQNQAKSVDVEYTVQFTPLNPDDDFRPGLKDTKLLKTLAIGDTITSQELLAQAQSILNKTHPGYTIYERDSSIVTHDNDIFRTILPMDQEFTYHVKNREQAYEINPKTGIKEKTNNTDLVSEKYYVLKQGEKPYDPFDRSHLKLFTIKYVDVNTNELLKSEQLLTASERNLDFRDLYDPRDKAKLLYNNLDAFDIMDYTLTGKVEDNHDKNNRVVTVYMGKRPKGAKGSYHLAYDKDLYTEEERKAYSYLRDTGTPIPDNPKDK
# Assay: S. pyogenes streptokinase expression inhibitors, potency, dose response, plasminogen activation absorbance, OD405 (AID 1914);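 note: secreted streptokinase activity via plasminogen activation per viability signal from cell pellet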
# Type: functional, Streptococcus pyogenes M1 GAS
# Conditions: not given
row,SMILES,EC50
1,Cc1ccc2ccc(C(Nc3cccc(C(F)(F)F)c3)c3cccnc3)c(O)c2n1 (stereo not given),> 150 µM (not active)
2,O=C1NC(=O)N(Cc2ccccc2)C(=O)/C1=C/NNC(=O)c1ccccc1,> 150 µM (not active)

# Tested on: Streptococcus
# Assay: Group A Streptococcus viability loss, dose response, counter-screen for streptokinase expression inhibitor project, luminescence, BacTiterGlo (AID 1915);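 note: potency for reduction of bacterial viability or growth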
# Type: functional, organism-based
# Conditions: not given
row,SMILES,EC50
1,Cn1c(O)cc(=O)nc1SCC(=O)Nc1ccc(Cl)cc1,> 150 µM (not active)
2,COc1cccc(C2CC(c3cccs3)=NN2C(=O)CSc2nc(O)c3cnn(-c4ccc(F)cc4)c3n2)c1OC (stereo not given),11.6 µM (active)
3,Cc1ccc2ccc(C(Nc3cccc(C(F)(F)F)c3)c3cccnc3)c(O)c2n1 (stereo not given),10.7 µM (active)
4,O=C1NC(=O)N(Cc2ccccc2)C(=O)/C1=C/NNC(=O)c1ccccc1,16.4 µM (active)

# Tested on: Streptococcus sp. 'group A'
# Assay: growth inhibition of control SK(-) GAS strain, dose response, counter-screen for streptokinase expression inhibitor project, luminescence, kanamycin, BacTiterGlo, confirmation (AID 1900)
# Type: functional, organism-based
# Conditions: not given
row,SMILES,EC50
1,Cn1c(O)cc(=O)nc1SCC(=O)Nc1ccc(Cl)cc1,29.9 µM (active)
2,COc1cccc(C2CC(c3cccs3)=NN2C(=O)CSc2nc(O)c3cnn(-c4ccc(F)cc4)c3n2)c1OC (stereo not given),1.63 µM (active)
3,Cc1ccc2ccc(C(Nc3cccc(C(F)(F)F)c3)c3cccnc3)c(O)c2n1 (stereo not given),2.12 µM (active)
4,O=C1NC(=O)N(Cc2ccccc2)C(=O)/C1=C/NNC(=O)c1ccccc1,9.3 µM (active)

# Molecular target: T2, Heat shock factor protein 1 (Mus musculus, UniProt P38532)
# T2 sequence (P38532 whole entry): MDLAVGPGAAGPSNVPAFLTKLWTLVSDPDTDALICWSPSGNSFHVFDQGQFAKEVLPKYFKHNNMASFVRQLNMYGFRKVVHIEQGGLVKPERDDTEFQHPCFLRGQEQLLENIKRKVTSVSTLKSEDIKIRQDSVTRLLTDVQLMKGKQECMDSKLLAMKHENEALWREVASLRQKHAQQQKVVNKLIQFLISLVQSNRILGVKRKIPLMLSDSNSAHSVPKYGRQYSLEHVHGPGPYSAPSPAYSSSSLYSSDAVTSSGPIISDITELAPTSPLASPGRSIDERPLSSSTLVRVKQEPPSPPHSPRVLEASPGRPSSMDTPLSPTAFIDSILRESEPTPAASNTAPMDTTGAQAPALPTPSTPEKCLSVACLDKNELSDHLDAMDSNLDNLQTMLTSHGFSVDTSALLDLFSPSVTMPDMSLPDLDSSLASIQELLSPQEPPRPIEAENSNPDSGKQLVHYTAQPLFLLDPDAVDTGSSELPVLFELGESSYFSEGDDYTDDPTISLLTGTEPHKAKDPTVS
# Assay: HSF1 potentiators in luciferase reporter cells, confirmation, cell-based, NIH3T3, luminescence, dose retest (AID 435004);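 note: stress induced by proteasome inhibitor MG132 added 30 min after compound; luciferase reporter driven by HSF1 response element in NIH3T3 cells; actives raise luminescence as potentiators of the MG132 stress response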
# Type: functional
# Conditions: not given
row,SMILES,EC50
1,FC(F)(F)c1cccc(Cn2nnnc2-c2cc(Cl)cc(Cl)c2)c1,> 260 µM (inactive)
2,COc1cc(/C=C(/C#N)C(=O)c2c(C)[nH]c3ccccc23)ccc1OCC#N,> 260 µM (inactive)
3,COC(=O)c1c(C)oc2ccc(N(C(=O)Oc3ccccc3)S(=O)(=O)c3ccccc3)cc12,> 260 µM (inactive)
4,O=C(CSc1nc[nH]n1)c1cccc([N+](=O)[O-])c1,> 260 µM (inactive)
5,CC(C)n1cc(/C=N/NC(=O)COc2cccc3cccnc23)c2ccccc21,75.1 µM (active)
6,NC(=O)CSC1=N/C(=C\c2ccco2)C(=O)N1c1ccc(OC(F)F)cc1,13.7 µM (active)
7,O=C(CSc1nnc(-c2cccs2)o1)N1CCCc2ccccc21,> 260 µM (inactive)
8,COc1ccc(-c2nc3scc(-c4ccccc4)n3n2)cc1,> 260 µM (inactive)
9,CC(C)C(=O)N1CCC(n2nccc2NC(=O)CCOc2ccccc2)CC1,> 260 µM (inactive)
10,CCN(CC(=O)NC(C)C)Cc1nc(O)c2c3c(sc2n1)CCC3,> 260 µM (inactive)
11,CCOP(=O)(C(NC(=O)c1ccccc1Cl)=C(Cl)Cl)c1ccccc1 (stereo not given),> 260 µM (inactive)
12,O=C(Nc1ccccc1C(=O)OCC(=O)c1c[nH]c2ccccc12)c1ccco1,55.3 µM (active)
13,CCNC(=O)C(=O)NCc1ccncc1,> 260 µM (inactive)

# Molecular target: T3, Corticotropin-releasing factor receptor 2/Corticotropin-releasing factor-binding protein (Homo sapiens, UniProt P24387+Q13324)
# T3 sequence (Q13324 whole entry): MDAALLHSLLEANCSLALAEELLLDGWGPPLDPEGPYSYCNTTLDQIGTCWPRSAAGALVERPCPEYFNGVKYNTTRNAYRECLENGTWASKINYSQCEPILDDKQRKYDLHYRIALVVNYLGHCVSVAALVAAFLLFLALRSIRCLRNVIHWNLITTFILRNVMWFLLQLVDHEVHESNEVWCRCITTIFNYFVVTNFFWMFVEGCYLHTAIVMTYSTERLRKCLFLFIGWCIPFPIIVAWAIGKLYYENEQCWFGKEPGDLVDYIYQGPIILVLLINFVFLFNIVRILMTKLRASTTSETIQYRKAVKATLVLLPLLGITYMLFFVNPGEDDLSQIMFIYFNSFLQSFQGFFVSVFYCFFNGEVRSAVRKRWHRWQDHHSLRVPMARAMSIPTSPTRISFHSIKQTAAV
# T3 sequence (P24387 whole entry): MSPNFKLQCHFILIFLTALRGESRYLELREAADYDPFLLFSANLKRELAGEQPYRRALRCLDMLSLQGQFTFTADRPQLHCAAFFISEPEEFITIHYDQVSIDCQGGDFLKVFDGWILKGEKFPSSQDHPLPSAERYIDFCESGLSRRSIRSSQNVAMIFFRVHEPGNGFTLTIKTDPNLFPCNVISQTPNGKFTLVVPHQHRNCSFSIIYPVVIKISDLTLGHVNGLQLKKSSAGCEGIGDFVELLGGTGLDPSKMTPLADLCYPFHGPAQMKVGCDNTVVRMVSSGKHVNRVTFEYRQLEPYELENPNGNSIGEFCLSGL
# Assay: activators of CRF receptor 2 with binding protein – uHTS hits, confirmation (AID 602473)
# Type: functional
# Conditions: read-out: EC50_Mean
row,SMILES,EC50
1,Cc1ccc2nc(NCCC(=O)O)nc(-c3ccccc3)c2c1,5.3 µM (active)
2,Cc1cnc(NC(=O)CSc2ncc(-c3ccccc3)n2Cc2ccco2)s1,5.51 µM (active)
3,Cc1ccc(S(=O)(=O)NC(C(=O)O)c2ccccc2)cc1 (stereo not given),> 53 µM (inactive)
4,Fc1ccc(-c2cc(C(F)(F)C(F)F)[nH]n2)cc1,6.17 µM (active)
5,C/C(=N\NC(=S)Nc1ccc(C)cc1)c1cccc(N)c1,> 53 µM (inactive)
6,C#CCN(N(C)c1ncc(C(F)(F)F)cc1Cl)S(=O)(=O)c1ccc2ccccc2c1,> 53 µM (inactive)
7,Cc1ccc(NS(=O)(=O)c2ccc(C(=O)N3CC(C)OC(C)C3)cc2)cc1 (stereo not given),8.95 µM (active)
